{"source": "patent US9505709B2", "about": "“Compositions and methods relating to ionic salts of peptides” (Thetis Pharmaceuticals LLC, priority 2014, dated 2016)", "key": {"[1]": {"assay": "Stability analysis by 1H NMR of samples exposed to air and light", "conditions": "ambient temperature", "procedure": "Stability analysis was performed using 1H NMR (400 MHz) with acetic acid-d4 at various time point (typically days 1, 14, 30 and 60) using samples exposed to air and light at ambient temperature (clear vials with no caps)."}, "Balb/C mice": {"test_system": "Balb/C mice", "assay": "Ocular irritation after topical dosing to the cornea (hyperemia, squinting, discharge, lid swelling)", "type": "in vivo", "conditions": "for Hyperemia: 3 μL drop in each eye four times daily for 3 days; for Squinting: topical to cornea", "protocol": "In an embodiment where the ophthalmic formulation is an aqueous formulation, it has been determined in mice that certain formulations can be administered to the surface of the eye without producing irritation that would make them unsuitable for such application. Irritation parameters of TP-211-1, TP-212-1, TP-311-1 and TP-312-1 related to hyperemia, squinting, and discharge were determined in Balb/C mice. Mice were dosed topically to the cornea using a calibrated micropipette, with a 3 μL drop of treatment in each eye four times daily for 3 consecutive days at various concentrations.\nTP-211-1 is Lysyl-lysine EPA. TP-212-1 is Lysyl-lysine bis-EPA. TP-311-1 is Lysyl-lysine DHA. TP-312-1 is Lysyl-lysine bis-DHA. The study drugs were prepared using phosphate buffered saline (PBS) to reach target concentrations ranging from 0.1% to 1.0%.\nThe animals were monitored for scratching at the eye or any other abnormal behavior post-dose. Ocular exams were conducted on Days 1 and 3 with use of a Micron III camera system to take high resolution videos of the right eye of each animal Clinical signs including but not limited to hyperemia, discharge, lid swelling, and squinting were evaluated by trained personnel who was masked as to group assignment. Each clinical sign was graded on a scale of 0-4, with the exception of lid swelling which was graded on a scale of 0-2. Scores were averaged and are expressed as the mean±SEM for each group. Statistical significance was assessed between the treatment arms and the vehicle group. Any significance is noted by asterisks (*=p<0.05, **=p<0.01, ***=p<0.001)."}}}
{"smiles": "CC/C=C\\C/C=C\\C/C=C\\C/C=C\\C/C=C\\C/C=C\\CCC(=O)O.NCCCC[C@H](NC(=O)[C@@H](N)CCCCN)C(=O)O", "note": "[Compound 3, (L,L) Lysyl lysine DHA (mono)]", "values": [{"measurement": "Stability by NMR (amount of sample remaining relative to original sample)", "setting": "[1]; Day 3", "result": "1 (1 = >95%)"}, {"measurement": "Stability by NMR (amount of sample remaining relative to original sample)", "setting": "[1]; Day 14", "result": "1 (1 = >95%)"}, {"measurement": "Stability by NMR (amount of sample remaining relative to original sample)", "setting": "[1]; Day 30", "result": "1 (1 = >95%)"}, {"measurement": "Stability by NMR (amount of sample remaining relative to original sample)", "setting": "[1]; Day 60", "result": "1 (1 = >95%)"}, {"measurement": "Hyperemia", "setting": "Balb/C mice; 0.5% concentration in PBS", "result": "did not cause any increase in hyperemia or squinting throughout"}, {"measurement": "Squinting", "setting": "Balb/C mice; 0.5% concentration in PBS", "result": "did not cause any increase in hyperemia or squinting throughout"}, {"measurement": "Hyperemia", "setting": "Balb/C mice; 1.0% concentration in PBS", "result": "elevated hyperemia after the first dose administration"}, {"measurement": "Squinting", "setting": "Balb/C mice; 1.0% concentration in PBS", "result": "no increase in squinting levels"}, {"measurement": "Concentration at which not irritating / well tolerated", "setting": "Balb/C mice; topical to cornea four times daily for 3 days", "result": "less than 1.0%"}]}
